AC50 and EC50 data for 23 compounds are collected here from ChEMBL document CHEMBL1201862, “PubChem BioAssay data set” (2004).

The source made the active and inactive calls.

Data set [1] concerns the target Cytochrome P450 2C19 (Homo sapiens, UniProt P33261). As to the kind of experiment: Cytochrome panel assay with activity outcomes. Panel member name: p450-cyp2c19 Compounds with AC50 equal or less than 10 uM are considered active. In kind it is functional.
The nature of data set [2]: inhibitors of intracellular T. cruzi replication, confirmation, NIH3T3 host cells, beta-gal luminescence (AID 2044).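 Also: intracellular parasites grown in NIH/3T3 mouse fibroblasts as host cells; luminescent beta-galactosidase reporter signal from transgenic T. cruzi replicating inside host cells; inhibitors lower the luminescence signal.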 In kind it is functional, cell-based.
Data set [3] is described as follows: cytotoxicity toward NIH3T3 fibroblasts, dose response, counter-screen, cell-based, ATP luminescence, mouse fibroblasts (AID 2010).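 Also: cells exposed to compound for about 90 hours before reading.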 To be noted: NIH3T3. In kind it is functional. A general note: A counterscreen serves to expose hits that act by an unwanted route or on another target.
The subject of data set [4] is Streptococcus sp. 'group A'. The experiment in a line: growth inhibition of control SK(-) GAS strain, dose response, counter-screen for streptokinase expression inhibitor project, luminescence, kanamycin, BacTiterGlo, confirmation (AID 1900). The class given is functional, organism-based.
Data set [5] relates to Streptococcus. As to the kind of experiment: Group A Streptococcus viability loss, dose response, counter-screen for streptokinase expression inhibitor project, luminescence, BacTiterGlo (AID 1915).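 Also: potency for reduction of bacterial viability or growth.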 In kind it is functional, organism-based.

Chain of Cytochrome P450 2C19 (P33261 whole entry): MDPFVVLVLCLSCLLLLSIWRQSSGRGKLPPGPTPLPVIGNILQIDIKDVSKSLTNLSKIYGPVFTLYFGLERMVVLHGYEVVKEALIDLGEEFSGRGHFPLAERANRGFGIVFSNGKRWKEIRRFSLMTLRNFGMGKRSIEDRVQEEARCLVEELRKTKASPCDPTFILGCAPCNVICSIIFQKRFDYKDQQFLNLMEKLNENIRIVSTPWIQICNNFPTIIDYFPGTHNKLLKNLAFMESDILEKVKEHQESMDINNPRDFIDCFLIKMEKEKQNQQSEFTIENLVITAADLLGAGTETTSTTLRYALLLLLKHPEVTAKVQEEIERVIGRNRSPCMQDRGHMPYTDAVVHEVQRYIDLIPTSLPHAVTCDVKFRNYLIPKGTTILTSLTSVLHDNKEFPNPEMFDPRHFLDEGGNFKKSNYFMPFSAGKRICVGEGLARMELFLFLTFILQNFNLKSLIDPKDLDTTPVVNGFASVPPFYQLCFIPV

Take `O=C(O)CC[C@@H](NC(=O)c1ccccc1C(=O)O)C(=O)O`: the AC50 in data set [1] (read-out: AC50) is 0.0251 µM (inconclusive). Take `CCC1CCCCN1c1nc(-c2ccncc2)nc2ccccc12` (stereo unspecified): the EC50 in data set [2] was 0.521 µM (active); in data set [3] it was 6.4 µM (active). For `COc1ccc(Nc2nnc(-c3ccc(O)cc3)c3ccccc23)cc1`, in that order: 3.48 µM (active) and > 60 µM (not active). Turning to `CCN1CCCc2cc(CN(CCN3CCOCC3)C(S)=Nc3ccc(OC)c(Cl)c3)ccc21`, the EC50 was 1.63 µM (active) in data set [2] and > 60 µM (not active) in data set [3]. The corresponding values for `COc1ccc(C(CNC(=O)c2oc3ccc(Br)cc3c2C)N2CCCCC2)cc1` (stereo unspecified) are 2.37 µM (active) and > 60 µM (not active). In the case of `CCCCNC(=O)NS(=O)(=O)c1ccc(C(=O)OC(C)C)o1`, the half-maximal activity concentration (AC50) in data set [1] (read-out: AC50) was 39.8 µM (inconclusive). Consider `Clc1ccc(-c2[nH]nc3c2CCC3)c(Cl)c1`, for which the EC50 is 16.8 µM (active) in data set [4] and > 150 µM (not active) in data set [5]. Consider `Cc1c(C)c(C)c2[nH]c(-c3ccc4c(c3)OCO4)nc2c1C`, for which the 50% effective concentration (EC50) was 1.45 µM (active) in data set [2] and > 30 µM (not active) in data set [3].

Turning to `COc1ccc(C(=O)N2CCC3(CCCN(c4ccccn4)C3)CC2)cc1`, in data set [1] (read-out: AC50), the AC50 is 25.1 µM (inconclusive). On the same count and under the same terms, the figure for `Cc1ccccc1C(=O)Nc1ccc(C(=O)NNC(=O)CCCOc2ccc(Cl)cc2Cl)cc1` is 17.8 µM (inconclusive). On the same count and under the same terms, the figure for `COC(=O)C1(C)C=C2C(=C(c3ccccc3)C(=O)C2C)CN1` (stereo unspecified) is 39.8 µM (inconclusive); for `CCCc1nnc(SCC(=O)N2CCCCC2)n1CC1CCCO1` (stereo unspecified) it is 17.8 µM (inconclusive). As to `CC(C)c1csc(CN2CCC(CO)(Cc3cccc(F)c3)CC2)n1`, the EC50 in data set [2] is 1.09 µM (active); in data set [3], > 60 µM (not active).

On to `CCN(CC)c1nc(-c2ccccc2)ncc1S(=O)(=O)c1ccc(C)cc1`, for which the EC50 in data set [2] was 2.65 µM (active); in data set [3] it was > 60 µM (not active).

With `NC(=O)c1csc(-c2ccc(CO)o2)n1`, the AC50 result in data set [1] was “inconclusive”.

Regarding `C=CC[n+]1c(-c2ccc(C)cc2)csc1Nc1c(C)n(C)n(-c2ccccc2)c1=O`, the EC50 in data set [2] is 4.99 µM (active); in data set [3] it was > 60 µM (not active). The corresponding values for `CN(c1ccccc1)S(=O)(=O)c1ccc(C(=O)Nc2ccncc2)cc1` are 1.18 µM (active) and > 60 µM (not active). In the case of `Cc1cc(Cl)ccc1N=C(S)NCCC(c1ccccc1)c1ccccc1`, the EC50 in data set [4] was 5.18 µM (active); in data set [5], 30.3 µM (active). On to `CCC(c1nnnn1C(C)(C)C)N(Cc1cccs1)Cc1cc2cc(C)c(C)cc2n2nnnc12` (stereo unspecified), for which the EC50 in data set [2] is 1.02 µM (active); in data set [3], > 60 µM (not active).

For `CC(=O)Nc1c(C)nn(-c2ccc(C)c(C)c2)c1C`, the AC50 in data set [1] (read-out: AC50) was 39.8 µM (inconclusive). For `O=C(c1ccco1)N1CCN(C(=O)c2nn3cccnc3c2Cl)CC1`, the AC50 result in data set [1] was “inconclusive”. On the same count and under the same terms, the entry for `CC1(C)CC(O)CC(C)(C)N1CC(O)COCCOc1ccc(Br)cc1` (stereo unspecified) is “inconclusive”. For `CCNC(=S)N/N=C/c1cccc(OCc2c(F)cccc2Cl)c1`, the EC50 was 1.15 µM (active) in data set [2] and > 30 µM (not active) in data set [3].

In general, AC50 refers to the concentration at which the activity in the assay is half-maximal. In general, EC50 refers to the midpoint of the concentration-response curve.
